5 compounds from patent US4526989A, “1,4-Bis (substituted-amino)-5,8-dihydroxy-anthraquinones and leuco bases thereof” (priority 1979, dated 1985) can be followed below.

Where “and” joins values, the source holds several entries; their conditions need not be identical. Equal values may be shown once. Read-outs that look alike come from different tables or passages of the source.

Experiment [1] relates to lymphocytic leukemia P388. In words: Lymphocytic leukemia P388 test (oral drug administration). The experiment is classed as in vivo, DBA/2 mice. To be noted: 60 mg./kg., administered intraperitoneally, positive control. The procedure: The animals used are DBA/2 mice all of one sex, weighing a minimum of 17 g. and all within a 3 gram weight range. There are 5 or 6 animals per test group. The tumor transplant is by intraperitoneal injection of 0.1 ml. of dilute ascitic fluid containing 10^6 cells of lymphocytic leukemia P388. The test compounds are administered intraperitoneally on days one, 5 and 9 (relative to tumor inoculation) at various doses. The animals are weighed and survivors are recorded on a regular basis for 30 days. The median survival time and the ratio of survival time for treated (T)/control (C) animals are calculated. […] The results of this test with representative compounds of the present invention appear in Table I. The criterion for efficacy is T/C×100≥125%.
The procedure used is the same as for the previously described test for lymphocytic leukemia P388 except that the test compounds are administered orally at various doses rather than intraperitoneally. The criterion for efficacy is T/C×100≥125%.

Experiment [2] concerns lymphocytic leukemia P388. In words: Lymphocytic leukemia P388 test (intraperitoneal administration). The class given is in vivo, DBA/2 mice. In outline:
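DBA/2 mice, single sex, 5-6 per group, inoculated i.p. with 10^6 P388 leukemia cells. Compounds given i.p. at various doses on days 1, 5 and 9; survival followed 30 days, reporting median survival time and treated/control (T/C) survival ratio.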

The next experiment concerns melanotic melanoma B16. In words: Melanotic Melanoma B16 test. The experiment is classed as in vivo, C57BC/6 mice. Put shortly:
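C57BC/6 mice (10 per group) were implanted i.p. with B16 melanoma homogenate, then dosed i.p. on days 1–9 at various doses.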

Experiment [3] concerns Ridgway Osteogenic Sarcoma. In words: Ridgway Osteogenic Sarcoma. The class given is in vivo, AKD2 F1 /J mice. To be noted: for % Inhibition Tumor Growth / % Showing 50% Tumor Regression / No. Without Tumors/No. Survivors / Tumor: 7 days after therapy stopped; for Median Survival / T/C: 63 days after therapy stopped. The procedure: The animals used are AKD2 F1 /J mice, all of the same sex, weighing a minimim of 17 g. and all within a three-gram weight range. There are normally 8 animals per test group. The tumor is administered subcutaneously by trocar as five 2-mm. fragments per mouse. The test compounds are administered intraperitoneally every 4 days for a total of 6 inoculations beginning on day 15 (relative to tumor inoculation) at various doses. The animals are weighed and survivors are recorded on a regular basis for 90 days. The regression of tumors is recorded in all test animals.

The mark [4] stands for this setting: Mus musculus, P388, ip, read-out: T/C × 100.
[5] abbreviates: 25 mg./kg. i.p., days 1, 5 and 9.
Where [6] appears, read: 50 mg./kg. i.p., days 1, 5 and 9.
Where [7] appears, read: 100 mg./kg. i.p., days 1, 5 and 9.
Where [8] appears, read: 200 mg./kg. i.p., days 1, 5 and 9.
The mark [9] stands for this setting: Mus musculus, P388, ip, 25 mg./kg. i.p., days 1, 5 and 9, efficacy ≥125%, read-out: T/C × 100.
Setting [10] is: Mus musculus, P388, ip, 50 mg./kg. i.p., days 1, 5 and 9, efficacy ≥125%, read-out: T/C × 100.
The mark [11] stands for this setting: Mus musculus, P388, ip, 100 mg./kg. i.p., days 1, 5 and 9, efficacy ≥125%, read-out: T/C × 100.
[12] abbreviates: 50 mg./kg. i.p., days 1 through 9.
Where [13] appears, read: Mus musculus, ip, 50 mg./kg. i.p., days 1 through 9, efficacy ≥125%, read-out: T/C × 100.

As for `O=c1[nH]cc(F)c(=O)[nH]1` [5-Fluorouracil, reference compound], the “Median Survival Time” value in experiment [1] is 19.0 days and 20.0 days. Besides, in experiment [1] (efficacy ≥125%), the “T/C × 100” value is 190% and 174%. In addition, the response vs control in vivo at 40 mg/kg in experiment [2] (Mus musculus, P388, ip, 40 mg./kg. injection, positive control, efficacy ≥125%, read-out: T/C × 100) is 164% and 155%. Moreover, the response vs control in vivo at 60 mg/kg in experiment [2] (setting [4]) stood at 200%; with melanotic melanoma B16 (Mus musculus, ip, 60 mg./kg. injection, positive control, efficacy ≥125%, read-out: T/C × 100), 128%.

For the compound `CC(CNC1=C2C(=O)c3c(O)ccc(O)c3C(=O)C2=C(NCC(C)N(C)C)CC1)N(C)C` (centres unmarked) [Leuco-1,4-bis[2-dimethylaminopropylamino]-5,8-dihydroxyanthraquinone], the “Median Survival Time” value is 11.0 days in experiment [2] (12.5 mg./kg. i.p., days 1, 5 and 9); 13.0 days in experiment [2] (setting [5]); 14.0 days in experiment [2] (setting [6]); 15.0 days in experiment [2] (setting [7]); 18.0 days in experiment [2] (setting [8]); 19.5 days in the experiment on melanotic melanoma B16 (6 mg./kg. i.p., days 1 through 9). Further, the “Median Survival Time” value worked out at 20.5 days in the experiment with melanotic melanoma B16 (12.5 mg./kg. i.p., days 1 through 9); 24.5 days with melanotic melanoma B16 (25 mg./kg. i.p., days 1 through 9); 28.5 days with melanotic melanoma B16 (setting [12]); 21.0 days in the experiment on melanotic melanoma B16 (100 mg./kg. i.p., days 1 through 9). In addition, the response vs control in vivo at 200 mg/kg in experiment [2] (setting [4]) came out at 200%. The response vs control in vivo at 12.5 mg/kg was 122% in experiment [2] (Mus musculus, P388, ip, 12.5 mg./kg. i.p., days 1, 5 and 9, efficacy ≥125%, read-out: T/C × 100); 121% with melanotic melanoma B16 (Mus musculus, ip, 12.5 mg./kg. i.p., days 1 through 9, efficacy ≥125%, read-out: T/C × 100). The response vs control in vivo at 25 mg/kg in experiment [2] (setting [9]) came out at 144%; in the experiment on melanotic melanoma B16 (Mus musculus, ip, 25 mg./kg. i.p., days 1 through 9, efficacy ≥125%, read-out: T/C × 100), 144%. Besides, the response vs control in vivo at 50 mg/kg in experiment [2] (setting [10]) amounted to 156%; in the experiment with melanotic melanoma B16 (setting [13]), 168%. The response vs control in vivo at 100 mg/kg in experiment [2] (setting [11]) worked out at 167%; in the experiment on melanotic melanoma B16 (Mus musculus, ip, 100 mg./kg. i.p., days 1 through 9, efficacy ≥125%, read-out: T/C × 100), 124%. Besides, in the experiment with melanotic melanoma B16 (Mus musculus, ip, 6 mg./kg. i.p., days 1 through 9, efficacy ≥125%, read-out: T/C × 100), the response vs control in vivo at 6 mg/kg is 115%.

Take `CCN(CC)CCNC1=C2C(=O)c3c(O)ccc(O)c3C(=O)C2=C(NCCN(CC)CC)CC1` [Leuco-1,4-bis[(2-diethylaminoethyl)amino]-5,8-dihydroxyanthraquinone]: the “Median Survival Time” value in experiment [2] (12 mg./kg. i.p., days 1, 5 and 9) turned out to be 12.0 days; in experiment [2] (setting [5]), 13.0 days; in experiment [2] (setting [6]), 15.0 days; in experiment [2] (setting [7]), 17.0 days; in experiment [2] (setting [8]) it was 17.0 days; with melanotic melanoma B16 (setting [12]) it was 23.0 days. Moreover, the response vs control in vivo at 12 mg/kg in experiment [2] (Mus musculus, P388, ip, 12 mg./kg. i.p., days 1, 5 and 9, efficacy ≥125%, read-out: T/C × 100) turned out to be 126%. Further, in experiment [2] (setting [9]), the response vs control in vivo at 25 mg/kg came out at 137%. The values for the response vs control in vivo at 50 mg/kg (in experiment [2] (setting [10]); with melanotic melanoma B16 (setting [13])) were 158% and 139%, respectively. In addition, in experiment [2] (setting [11]), the response vs control in vivo at 100 mg/kg was 179%. Moreover, the response vs control in vivo at 200 mg/kg in experiment [2] (Mus musculus, P388, ip, 200 mg./kg. i.p., days 1, 5 and 9, efficacy ≥125%, read-out: T/C × 100) was 179%.

On to `CN(Cc1cnc2nc(N)nc(N)c2n1)c1ccc(C(=O)N[C@@H](CCC(=O)O)C(=O)O)cc1` [Methotrexate], for which, in experiment [3] (6 mg./kg. i.p.), the “% Inhibition Tumor Growth” value is reported as 36%, the “% Showing 50% Tumor Regression” value is reported as 0%, the “No. Without Tumors/No. Survivors” value was 0/4 and the Tumor is 758 (mm.) 2. Besides, the “Median Survival” value in experiment [3] (6 mg./kg. i.p.) amounted to 46 days. In experiment [3] (12 mg./kg. i.p.), the “% Inhibition Tumor Growth” value worked out at 23%, the “% Showing 50% Tumor Regression” value was determined as 0%, the “No. Without Tumors/No. Survivors” value is recorded as 0/5 and the Tumor is 916 (mm.) 2. In experiment [3] (12 mg./kg. i.p.), the “Median Survival” value stood at 49 days. In experiment [3] (25 mg./kg. i.p.), the “% Inhibition Tumor Growth” value turned out to be 54%, the “% Showing 50% Tumor Regression” value worked out at 12%, the “No. Without Tumors/No. Survivors” value was 1/6 and the Tumor was 546 (mm.) 2. Besides, in experiment [3] (25 mg./kg. i.p.), the “Median Survival” value was 52.5 days and the T/C turned out to be 118%.

On to `CC[C@]1(O)C[C@H]2CN(CCc3c([nH]c4ccccc34)[C@@](C(=O)OC)(c3cc4c(cc3OC)N(C=O)[C@H]3[C@@](O)(C(=O)OC)[C@H](OC(C)=O)[C@]5(CC)C=CCN6CC[C@]43[C@@H]65)C2)C1` [Vincristine], for which, in experiment [3] (0.5 mg./kg. i.p.), the “% Inhibition Tumor Growth” value was determined as 93%, the “% Showing 50% Tumor Regression” value amounted to 57%, the “No. Without Tumors/No. Survivors” value is 4/7 and the Tumor is on record as 77 (mm.) 2. In addition, in experiment [3] (0.5 mg./kg. i.p.), the “Median Survival” value came out at 83 days and the T/C is 186%. For the same compound, in experiment [3] (1.0 mg./kg. i.p.), the “% Inhibition Tumor Growth” value is reported as 100%, the “% Showing 50% Tumor Regression” value turned out to be 100%, the “No. Without Tumors/No. Survivors” value was 6/6 and the Tumor is listed as 0 (mm.) 2. For the same compound, in experiment [3] (1.0 mg./kg. i.p.), the “Median Survival” value stood at 85 days and the T/C is 191%. Besides, in experiment [3] (1.5 mg./kg. i.p.), the “% Inhibition Tumor Growth” value worked out at 100%, the “% Showing 50% Tumor Regression” value amounted to 100%, the “No. Without Tumors/No. Survivors” value is listed as 4/4 and the Tumor is 0 (mm.) 2. In addition, in experiment [3] (1.5 mg./kg. i.p.), the “Median Survival” value is 68 days and the T/C is reported as 153%.
